# Molecular target: T1, human full-length MKNK1 (Homo sapiens, UniProt Q9BUB5, T385D)
# T1 construct: GST (N); purchased Carna Biosciences 02-145; host or cells: insect cells (baculovirus expression system)
# Test: MKNK1 kinase high ATP assay (TR-FRET)
# Format: biochemical
# Details: Table 1; MKNK1 kinase high ATP assay, 2 mM ATP; read-out: MKNK1 IC50
# In short: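 Full-length human MKNK1 (T385D) preincubated 15 min at 22 °C with compound in HEPES pH 7.5/MgCl2/DTT buffer; reaction with 2 mM ATP (final) and 0.06 μM biotinylated peptide (final), 30 min at 22 °C.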
# T1 sequence (Q9BUB5 1-424 isoform Q9BUB5-2 T344D): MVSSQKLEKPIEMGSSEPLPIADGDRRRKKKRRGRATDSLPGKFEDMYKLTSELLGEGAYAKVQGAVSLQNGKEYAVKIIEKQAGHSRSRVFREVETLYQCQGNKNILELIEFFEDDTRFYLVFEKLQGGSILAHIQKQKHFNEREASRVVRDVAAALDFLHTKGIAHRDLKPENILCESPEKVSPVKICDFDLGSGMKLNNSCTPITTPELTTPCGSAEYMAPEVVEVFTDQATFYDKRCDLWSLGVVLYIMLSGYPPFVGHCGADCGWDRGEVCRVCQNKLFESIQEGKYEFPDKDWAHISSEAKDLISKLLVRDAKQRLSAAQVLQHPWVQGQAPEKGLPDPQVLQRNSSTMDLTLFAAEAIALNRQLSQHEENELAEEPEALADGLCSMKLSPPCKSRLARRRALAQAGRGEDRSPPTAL
row,SMILES,IC50
1,"O=C([C@H]1CCc2c(sc3ncnc(Nc4cc5cn[nH]c5cc4N4CCCC4)c23)C1)N1CCC1 [Example 195, Azetidin-1-yl[(7S)-4-{[6-(pyrrolidin-1-yl)-1H-indazol-5-yl]amino}-5,6,7,8-tetrahydro[1]benzothieno[2,3-d]pyrimidin-7-yl]methanone]",0.9 nM
2,"CN(C)c1cc2[nH]ncc2cc1Nc1ncnc2sc3c(c12)CC[C@H](C(=O)N1CCC1)C3 [Example 196, Azetidin-1-yl[(7S)-4-{[6-(dimethylamino)-1H-indazol-5-yl]amino}-5,6,7,8-tetrahydro[1]benzothieno[2,3-d]pyrimidin-7-yl]methanone]",0.1 nM
3,"CCN(OC)C(=O)[C@H]1CCc2c(sc3ncnc(Nc4cc5cn[nH]c5cc4OC)c23)C1 [Example 197, (7S)—N-Ethyl-N-methoxy-4-[(6-methoxy-1H-indazol-5-yl)amino]-5,6,7,8-tetrahydro[1]benzothieno[2,3-d]pyrimidine-7-carboxamide]",0.1 nM
4,"COc1cc2[nH]ncc2cc1Nc1ncnc2sc3c(c12)CC[C@H](C(=O)N(C)OC)C3 [Example 198, (7S)—N-Methoxy-4-[(6-methoxy-1H-indazol-5-yl)amino]-N-methyl-5,6,7,8-tetrahydro[1]benzothieno[2,3-d]pyrimidine-7-carboxamide]",0.2 nM
5,"CN(C)C(=O)[C@H]1CCc2c(sc3ncnc(Nc4cc5cn[nH]c5cc4OC4CCCC4)c23)C1 [Example 199, (7S)-4-{[6-(Cyclopentyloxy)-1H-indazol-5-yl]amino}-N,N-dimethyl-5,6,7,8-tetrahydro[1]benzothieno[2,3-d]pyrimidine-7-carboxamide]",0.2 nM
6,"CN(C)C(=O)[C@H]1CCc2c(sc3ncnc(Nc4cc5cn[nH]c5cc4OC4CCOCC4)c23)C1 [Example 200, (7S)—N,N-Dimethyl-4-{[6-(tetrahydro-2H-pyran-4-yloxy)-1H-indazol-5-yl]amino}-5,6,7,8-tetrahydro[1]benzothieno[2,3-d]pyrimidine-7-carboxamide]",1.6 nM
7,"CN(C)C(=O)[C@H]1CCc2c(sc3ncnc(Nc4cc5cn[nH]c5cc4OCC4CCOCC4)c23)C1 [Example 201, (7S)—N,N-Dimethyl-4-{[6-(tetrahydro-2H-pyran-4-ylmethoxy)-1H-indazol-5-yl]amino}-5,6,7,8-tetrahydro[1]benzothieno[2,3-d]pyrimidine-7-carboxamide]",23.6 nM
8,"CN(C)C(=O)[C@H]1CCc2c(sc3ncnc(Nc4cc5cn[nH]c5cc4OC4CCCCC4)c23)C1 [Example 202, (7S)-4-{[6-(Cyclohexyloxy)-1H-indazol-5-yl]amino}-N,N-dimethyl-5,6,7,8-tetrahydro[1]benzothieno[2,3-d]pyrimidine-7-carboxamide]",1 nM
9,"CN(C)CCCOc1cc2[nH]ncc2cc1Nc1ncnc2sc3c(c12)CC[C@H](C(=O)N(C)C)C3 [Example 203, (7S)-4-({6-[3-(Dimethylamino)propoxy]-1H-indazol-5-yl}amino)-N,N-dimethyl-5,6,7,8-tetrahydro[1]benzothieno[2,3-d]pyrimidine-7-carboxamide]",17.1 nM
10,"COc1cc2[nH]ncc2cc1Nc1ncnc2sc3c(c12)CC[C@H](C(=O)N(C)CC(C)(C)OC)C3 [Example 204, (7S)-4-[(6-Methoxy-1H-indazol-5-yl)amino]-N-(2-methoxy-2-methylpropyl)-N-methyl-5,6,7,8-tetrahydro[1]benzothieno[2,3-d]pyrimidine-7-carboxamide]",0.9 nM
11,"COc1cc2[nH]ncc2cc1Nc1ncnc2sc3c(c12)CC[C@H](C(=O)N1CC=CC1)C3 [Example 206, 2,5-Dihydro-1H-pyrrol-1-yl{(7S)-4-[(6-methoxy-1H-indazol-5-yl)amino]-5,6,7,8-tetrahydro[1]benzothieno[2,3-d]pyrimidin-7-yl}methanone]",0.9 nM
12,"COc1cc2[nH]ncc2cc1Nc1ncnc2sc3c(c12)CC[C@H](C(=O)N1CCSCC1)C3 [Example 207, {(7S)-4-[(6-methoxy-1H-indazol-5-yl)amino]-5,6,7,8-tetrahydro[1]benzothieno[2,3-d]pyrimidin-7-yl}(thiomorpholin-4-yl)methanone]",0.2 nM
13,"COc1cc2[nH]ncc2cc1Nc1ncnc2sc3c(c12)CC[C@H](C(=O)N1CCC(F)(F)C1)C3 [Example 208, (3,3-Difluoropyrrolidin-1-yl){(7S)-4-[(6-methoxy-1H-indazol-5-yl)amino]-5,6,7,8-tetrahydro[1]benzothieno[2,3-d]pyrimidin-7-yl}methanone]",0.6 nM
14,"COc1cc2[nH]ncc2cc1Nc1ncnc2sc3c(c12)CC[C@H](C(=O)N1CC2CC2C1)C3 (stereo partly drawn) [Example 209, 3-Azabicyclo[3.1.0]hex-3-yl{(7S)-4-[(6-methoxy-1H-indazol-5-yl)amino]-5,6,7,8-tetrahydro[1]benzothieno[2,3-d]pyrimidin-7-yl}methanone]",0.5 nM
15,"COc1cc2[nH]ncc2cc1Nc1ncnc2sc3c(c12)CC[C@H](C(=O)N1C[C@H](C)O[C@@H](C)C1)C3 [Example 210, [(2S,6S)-2,6-Dimethylmorpholin-4-yl]{(7S)-4-[(6-methoxy-1H-indazol-5-yl)amino]-5,6,7,8-tetrahydro[1]benzothieno[2,3-d]pyrimidin-7-yl}methanone]",0.4 nM
16,"COc1cc2[nH]ncc2cc1Nc1ncnc2sc3c(c12)CC[C@H](C(=O)N1C[C@@H](C)O[C@H](C)C1)C3 [Example 211, [(2R,6R)-2,6-Dimethylmorpholin-4-yl]{(7S)-4-[(6-methoxy-1H-indazol-5-yl)amino]-5,6,7,8-tetrahydro[1]benzothieno[2,3-d]pyrimidin-7-yl}methanone]",0.2 nM
17,"COc1cc2[nH]ncc2cc1Nc1ncnc2sc3c(c12)CC[C@H](C(=O)N1CCCCO1)C3 [Example 212, {(7S)-4-[(6-Methoxy-1H-indazol-5-yl)amino]-5,6,7,8-tetrahydro[1]benzothieno[2,3-d]pyrimidin-7-yl}(1,2-oxazinan-2-yl)methanone]",0.3 nM
18,"COc1cc2[nH]ncc2cc1Nc1ncnc2sc3c(c12)CC[C@H](C(=O)N1CCCO1)C3 [Example 213, {(7S)-4-[(6-Methoxy-1H-indazol-5-yl)amino]-5,6,7,8-tetrahydro[1]benzothieno[2,3-d]pyrimidin-7-yl}(1,2-oxazolidin-2-yl)methanone]",0.4 nM
19,"CCON(C)C(=O)[C@H]1CCc2c(sc3ncnc(Nc4cc5cn[nH]c5cc4OC)c23)C1 [Example 214, (7S)—N-Ethoxy-4-[(6-methoxy-1H-indazol-5-yl)amino]-N-methyl-5,6,7,8-tetrahydro[1]benzothieno[2,3-d]pyrimidine-7-carboxamide]",1.2 nM
20,"COc1cc2[nH]ncc2cc1Nc1ncnc2sc3c(c12)CC[C@H](C(=O)N(C)CCC(C)(C)O)C3 [Example 215, (7S)—N-(3-Hydroxy-3-methylbutyl)-4-[(6-methoxy-1H-indazol-5-yl)amino]-N-methyl-5,6,7,8-tetrahydro[1]benzothieno[2,3-d]pyrimidine-7-carboxamide]",1 nM
21,"COc1cc2[nH]ncc2cc1Nc1ncnc2sc3c(c12)CC[C@H](C(=O)N(C)S(C)(=O)=O)C3 [Example 216, (7S)-4-[(6-Methoxy-1H-indazol-5-yl)amino]-N-methyl-N-(methylsulfonyl)-5,6,7,8-tetrahydro[1]benzothieno[2,3-d]pyrimidine-7-carboxamide]",0.5 nM
22,"COCCN(C)C(=O)[C@H]1CCc2c(sc3ncnc(Nc4cc5cn[nH]c5cc4OC)c23)C1 [Example 217, (7S)—N-(2-Methoxyethyl)-4-[(6-methoxy-1H-indazol-5-yl)amino]-N-methyl-5,6,7,8-tetrahydro[1]benzothieno[2,3-d]pyrimidine-7-carboxamide]",0.3 nM
23,"CCOc1cc2[nH]ncc2cc1Nc1ncnc2sc3c(c12)CC[C@H](C(=O)N1CC(N(C)C)C1)C3 [Example 218, [3-(Dimethylamino)azetidin-1-yl]{(7S)-4-[(6-ethoxy-1H-indazol-5-yl)amino]-5,6,7,8-tetrahydro[1]benzothieno[2,3-d]pyrimidin-7-yl}methanone]",0.2 nM
24,"CC(C)Oc1cc2[nH]ncc2cc1Nc1ncnc2sc3c(c12)CC[C@H](C(=O)N1CC(N(C)C)C1)C3 [Example 219, [3-(Dimethylamino)azetidin-1-yl][(7S)-4-{[6-(propan-2-yloxy)-1H-indazol-5-yl]amino}-5,6,7,8-tetrahydro[1]benzothieno[2,3-d]pyrimidin-7-yl]methanone]",0.2 nM
25,"O=C([C@H]1CCc2c(sc3ncnc(Nc4cc5cn[nH]c5cc4F)c23)C1)N1CC2CC2C1 (stereo partly drawn) [Example 220, 3-Azabicyclo[3.1.0]hex-3-yl{(7S)-4-[(6-fluoro-1H-indazol-5-yl)amino]-5,6,7,8-tetrahydro[1]benzothieno[2,3-d]pyrimidin-7-yl}methanone]",4.3 nM
26,"C[C@@H]1CN(C(=O)[C@H]2CCc3c(sc4ncnc(Nc5cc6cn[nH]c6cc5F)c34)C2)C[C@H](C)O1 [Example 221, [(2R,6S)-2,6-Dimethylmorpholin-4-yl]{(7S)-4-[(6-fluoro-1H-indazol-5-yl)amino]-5,6,7,8-tetrahydro[1]benzothieno[2,3-d]pyrimidin-7-yl}methanone]",3.8 nM
27,"COCCN(C)C(=O)[C@H]1CCc2c(sc3ncnc(Nc4cc5cn[nH]c5cc4F)c23)C1 [Example 222, (7S)-4-[(6-Fluoro-1H-indazol-5-yl)amino]-N-(2-methoxyethyl)-N-methyl-5,6,7,8-tetrahydro[1]benzothieno[2,3-d]pyrimidine-7-carboxamide]",3.2 nM
28,"C[C@@H]1COCCN1C(=O)[C@H]1CCc2c(sc3ncnc(Nc4cc5cn[nH]c5cc4F)c23)C1 [Example 223, {(7S)-4-[(6-Fluoro-1H-indazol-5-yl)amino]-5,6,7,8-tetrahydro[1]benzothieno[2,3-d]pyrimidin-7-yl}[(3R)-3-methylmorpholin-4-yl]methanone]",8.4 nM
